Experimental data taken from ChEMBL document CHEMBL6087436, “The novel β-hairpin antimicrobial peptide D-G(RF)3 demonstrates exceptional antibacterial efficacy” (Eur J Med Chem, 2025).
≈ marks a conversion by molar mass, not a printed value. Calls of active or inactive are those of the source. No cut-off for these calls is given here.

Tests used:
[1] = tested on: Klebsiella pneumoniae; assay: In vivo antibacterial activity against Klebsiella pneumoniae ATCC 700603 infected in male Balb/c mouse lung infection model assessed as reduction in crumpling alveoli at 10 mg/kg, ip measured after 24 hrs by H and E staining based analysis; format: functional, organism-based
[2] = tested on: Escherichia coli; assay: Antibacterial activity against Escherichia coli ATCC 25922 assessed as inhibition of bacterial growth incubated for 18 hrs by microbroth dilution assay; format: functional
[3] = tested on: Cell membrane; assay: Induction of cell membrane permeability in Escherichia coli assessed as bacterial breakage at 2 times MIC by SEM analysis; format: subcellular
[4] = tested on: Pseudomonas aeruginosa; assay: Inhibition of biofilm formation in Pseudomonas aeruginosa ATCC 27853 incubated for 24 hrs by crystal violet staining based analysis; format: functional, organism-based; details: dose 1-32 µM
[5] = Stability of compound in mouse plasma assessed as degradation of compound by measuring half life incubated for 48 hrs by RP-HPLC analysis; format: ADME, cell-free
[6] = tested on: Staphylococcus aureus; assay: Antibacterial activity against Staphylococcus aureus ATCC 25923 in presence of 8 uM ZnCl2; format: functional, organism-based
[7] = tested on: Cell membrane; assay: Induction of cell membrane permeability in Escherichia coli assessed as cluster formation at 2 times MIC by SEM analysis; format: subcellular
[8] = Retention time of the compound by RP-HPLC analysis; format: physicochemical
[9] = tested on: Pseudomonas aeruginosa; assay: Synergistic antibacterial activity against Pseudomonas aeruginosa assessed as fractional inhibitory concentration index in presence of imipenem incubated for 18 hrs by checkerboard method; format: functional
[10] = tested on: Pseudomonas aeruginosa; assay: Antibacterial activity against Pseudomonas aeruginosa ATCC 27853 in presence of 6 uM NH4Cl; format: functional, organism-based
[11] = tested on: Pseudomonas aeruginosa; assay: Antibacterial activity against Pseudomonas aeruginosa ATCC 27853 in presence of 150 mM NaCl; format: functional, organism-based
[12] = tested on: Staphylococcus aureus; assay: Inhibition of biofilm formation in Staphylococcus aureus ATCC 25923 incubated for 24 hrs by crystal violet staining based analysis; format: functional, organism-based; details: dose 1-32 µM
[13] = tested on: Pseudomonas aeruginosa; assay: Antibacterial activity against Pseudomonas aeruginosa ATCC 27853 assessed as inhibition of bacterial growth incubated for 18 hrs by microbroth dilution assay; format: functional
[14] = tested on: Klebsiella pneumoniae; assay: Synergistic antibacterial activity against Klebsiella pneumoniae assessed as fractional inhibitory concentration index in presence of rifampin incubated for 18 hrs by checkerboard method; format: functional
[15] = Hemolytic activity in Kunming mouse erythrocytes assessed as hemolytic rate at 256 uM incubated for 1 hr by multimode reader analysis relative to control; format: toxicity, cell-based, Erythrocyte; details: read-out: Activity
[16] = tested on: Pseudomonas aeruginosa; assay: Antibacterial activity against Pseudomonas aeruginosa ATCC 27853 in presence of 2 mM CaCl2; format: functional, organism-based
[17] = tested on: Escherichia coli; assay: Inhibition of biofilm formation in Escherichia coli ATCC 25922 at >= 2 uM incubated for 24 hrs by crystal violet staining based analysis; format: functional, organism-based
[18] = tested on: Klebsiella pneumoniae; assay: In vivo antibacterial activity against Klebsiella pneumoniae ATCC 700603 infected in male Balb/c mouse lung infection model assessed as reduction in pulmonary bacterial load at 5 mg/kg, ip measured after 24 hrs (reference value: 3.05 x 10^9 CFU/g); format: functional
[19] = tested on: Pseudomonas aeruginosa; assay: Induction of drug resistance in Pseudomonas aeruginosa ATCC 27853 assessed as fold increase in MIC incubated for 24 hrs and measured under 40 passages; format: functional
[20] = Acute toxicity in male balb/c mouse assessed as lethal dose at ip administration; format: organism-based; details: in vivo
[21] = tested on: Klebsiella pneumoniae; assay: Inhibition of biofilm formation in Klebsiella pneumoniae ATCC 700603 at 1 uM incubated for 24 hrs by crystal violet staining based analysis; format: functional, organism-based
[22] = tested on: Staphylococcus aureus; assay: Antibacterial activity against Staphylococcus aureus ATCC 25923 in presence of 150 mM NaCl; format: functional, organism-based
[23] = tested on: Klebsiella pneumoniae; assay: In vivo antibacterial activity against Klebsiella pneumoniae ATCC 700603 infected in male Balb/c mouse lung infection model assessed as reduction in alveoli expansion at 10 mg/kg, ip measured after 24 hrs by H and E staining based analysis; format: functional, organism-based
[24] = tested on: Pseudomonas aeruginosa; assay: Antibacterial activity against Pseudomonas aeruginosa ATCC 27853 in presence of 4 uM FeCl3; format: functional, organism-based
[25] = tested on: Cell membrane; assay: Induction of Outer membrane permeabilization in Escherichia coli assessed as increase in fluorescence intensity incubated for 1 min by NPN-dye based fluorescence analysis; format: subcellular
[26] = tested on: Klebsiella pneumoniae; assay: Antibacterial activity against Klebsiella pneumoniae ATCC 700603 assessed as inhibition of bacterial growth incubated for 18 hrs by microbroth dilution assay; format: functional
[27] = tested on: Staphylococcus aureus; assay: Antibacterial activity against Staphylococcus aureus ATCC 25923 in presence of 4.5 mM KCl; format: functional, organism-based
[28] = tested on: Pseudomonas aeruginosa; assay: Antibacterial activity against Pseudomonas aeruginosa ATCC 27853 in presence of 4.5 mM KCl; format: functional, organism-based
[29] = tested on: Staphylococcus aureus; assay: Antibacterial activity against Staphylococcus aureus ATCC 25923 in presence of 1 mM MgCl2; format: functional, organism-based
[30] = tested on: Cell membrane; assay: Induction of Inner membrane permeabilization in Escherichia coli ML-35 ATCC […] measured every 5 mins for 120 mins by ONPG dye based assay; format: subcellular
[31] = tested on: Staphylococcus aureus; assay: Antibacterial activity against Staphylococcus aureus ATCC 25923 in presence of 2 mM CaCl2; format: functional, organism-based
[32] = tested on: Klebsiella pneumoniae; assay: Inhibition of biofilm formation in Klebsiella pneumoniae ATCC 700603 incubated for 24 hrs by crystal violet staining based analysis; format: functional, organism-based; details: dose 1-32 µM
[33] = tested on: Klebsiella pneumoniae; assay: In vivo antibacterial activity against Klebsiella pneumoniae ATCC 700603 infected in male Balb/c mouse lung infection model assessed as reduction in serous exudation of alveolar cavities at 10 mg/kg, ip measured after 24 hrs by H and E staining based analysis; format: functional, organism-based
[34] = tested on: Klebsiella pneumoniae; assay: In vivo antibacterial activity against Klebsiella pneumoniae ATCC 700603 infected in male Balb/c mouse lung infection model assessed as reduction in pulmonary bacterial load at 10 mg/kg, ip measured after 24 hrs (reference value: 3.05 x 10^9 CFU/g); format: functional
[35] = tested on: Staphylococcus aureus; assay: Antibacterial activity against Staphylococcus aureus ATCC 25923 in presence of 4 uM FeCl3; format: functional, organism-based
[36] = tested on: Staphylococcus epidermidis; assay: Antibacterial activity against Staphylococcus epidermidis ATCC 12228 assessed as inhibition of bacterial growth incubated for 18 hrs by microbroth dilution assay; format: functional
[37] = tested on: Staphylococcus aureus; assay: Synergistic antibacterial activity against Staphylococcus aureus assessed as fractional inhibitory concentration index in presence of bacitracin incubated for 18 hrs by checkerboard method; format: functional
[38] = tested on: Klebsiella pneumoniae; assay: Synergistic antibacterial activity against Klebsiella pneumoniae assessed as fractional inhibitory concentration index in presence of kanamycin incubated for 18 hrs by checkerboard method; format: functional
[39] = tested on: Cell membrane; assay: Induction of Cytoplasmic membrane depolarization in Staphylococcus aureus measured for every 10 mins by DiSC3(5) dye based fluorescence method
[40] = tested on: Cell membrane; assay: Induction of cell membrane permeability in Escherichia coli assessed as grooves shallower at 2 times MIC by SEM analysis; format: subcellular
[41] = tested on: Escherichia coli; assay: Synergistic antibacterial activity against Escherichia coli assessed as fractional inhibitory concentration index in presence of polymyxin B incubated for 18 hrs by checkerboard method; format: functional
[42] = tested on: Klebsiella pneumoniae; assay: Synergistic antibacterial activity against Klebsiella pneumoniae assessed as fractional inhibitory concentration index in presence of polymyxin B incubated for 18 hrs by checkerboard method; format: functional
[43] = tested on: Escherichia coli; assay: Inhibition of biofilm formation in Escherichia coli ATCC 25922 incubated for 24 hrs by crystal violet staining based analysis; format: functional, organism-based; details: dose 1-32 µM
[44] = tested on: Pseudomonas aeruginosa; assay: Antibacterial activity against Pseudomonas aeruginosa ATCC 27853 in presence of 8 uM ZnCl2; format: functional, organism-based

N=C(N)NCCC[C@@H](NC(=O)CNC(=O)[C@H]1CCCN1C(=O)[C@@H](CCCNC(=N)N)NC(=O)[C@@H](Cc1ccccc1)NC(=O)[C@@H](CCCNC(=N)N)NC(=O)[C@@H](Cc1ccccc1)NC(=O)[C@@H](CCCNC(=N)N)NC(=O)[C@H](N)Cc1ccccc1)C(=O)N[C@H](Cc1ccccc1)C(=O)N[C@H](CCCNC(=N)N)C(=O)N[C@H](Cc1ccccc1)C(=O)N[C@H](CCCNC(=N)N)C(=O)N[C@H](Cc1ccccc1)C(N)=O
Activity [1]: Active
MIC [2]: 8 µM (≈ 15.9 µg/mL)
Activity [3]: Active
inhibition [4]: Dose-dependent-effect
half-life [5]: > 48 h
Activity [6]: Active
Activity [7]: Active
Retention_time [8]: 14.438 min
fractional inhibitory concentration index (FICI) [9]: 0.375
Activity [10]: Active
Activity [11]: Active
inhibition [12]: Dose-dependent-effect
MIC [13]: 4 µM (≈ 7.97 µg/mL)
fractional inhibitory concentration index (FICI) [14]: 0.313
hemolysis at 1 h, 256 µM [15]: 4.3%
Activity [16]: Active
inhibition [17]: Active
Activity [18]: 5.98 10^7CFU/g
fold change (FC) [19]: <4
LD50 [20]: 45.3 mg/kg
inhibition [21]: Active; Less Effective Than Polymyxin B
Activity [22]: Active
Activity [23]: Active
Activity [24]: Active
Activity [25]: Active
MIC [26]: 8 µM (≈ 15.9 µg/mL)
Activity [27]: Active
Activity [28]: Active
Activity [29]: Active
Activity [30]: Dose-dependent-effect
Activity [31]: Active
inhibition [32]: Dose-dependent-effect
Activity [33]: Active
Activity [34]: 2.48 10^7CFU/g
Activity [35]: Active
MIC [36]: 2 µM (≈ 3.98 µg/mL)
fractional inhibitory concentration index (FICI) [37]: 0.375
fractional inhibitory concentration index (FICI) [38]: 0.375
Activity [39]: Dose-dependent-effect
Activity [40]: Active
fractional inhibitory concentration index (FICI) [41]: 0.188
fractional inhibitory concentration index (FICI) [42]: 0.188
inhibition [43]: Dose-dependent-effect
Activity [44]: Active

N=C(N)NCCC[C@H](NC(=O)CNC(=O)[C@H]1CCCN1C(=O)[C@H](CCCNC(=N)N)NC(=O)[C@H](Cc1ccccc1)NC(=O)[C@H](CCCNC(=N)N)NC(=O)[C@H](Cc1ccccc1)NC(=O)[C@H](CCCNC(=N)N)NC(=O)[C@@H](N)Cc1ccccc1)C(=O)N[C@@H](Cc1ccccc1)C(=O)N[C@@H](CCCNC(=N)N)C(=O)N[C@@H](Cc1ccccc1)C(=O)N[C@@H](CCCNC(=N)N)C(=O)N[C@@H](Cc1ccccc1)C(N)=O
Activity [1]: Active
MIC [2]: 4 µM (≈ 7.97 µg/mL)
Activity [3]: Active
inhibition [4]: Dose-dependent-effect
half-life [5]: 3.03 h
Activity [6]: Active
Activity [7]: Active
Retention_time [8]: 14.433 min
fractional inhibitory concentration index (FICI) [9]: 0.313
Activity [10]: Active
Activity [11]: Active
inhibition [12]: Dose-dependent-effect
MIC [13]: 4 µM (≈ 7.97 µg/mL)
fractional inhibitory concentration index (FICI) [14]: 0.313
hemolysis at 1 h, 256 µM [15]: 9.7%
Activity [16]: Active
inhibition [17]: Active
Activity [18]: 1.52 10^8CFU/g
fold change (FC) [19]: <4
LD50 [20]: 81.3 mg/kg
inhibition [21]: Active; Less Effective Than Polymyxin B
Activity [22]: Active
Activity [23]: Active
Activity [24]: Active
Activity [25]: Active
MIC [26]: 8 µM (≈ 15.9 µg/mL)
Activity [27]: Active
Activity [28]: Active
Activity [29]: Active
Activity [30]: Dose-dependent-effect
Activity [31]: Active
inhibition [32]: Dose-dependent-effect
Activity [33]: Active
Activity [34]: 4.93 10^7CFU/g
Activity [35]: Active
MIC [36]: 2 µM (≈ 3.98 µg/mL)
fractional inhibitory concentration index (FICI) [37]: 0.375
fractional inhibitory concentration index (FICI) [38]: 0.313
Activity [39]: Dose-dependent-effect
Activity [40]: Active
fractional inhibitory concentration index (FICI) [41]: 0.25
fractional inhibitory concentration index (FICI) [42]: 0.188
inhibition [43]: Dose-dependent-effect
Activity [44]: Active
